Where a name gives a salt, the structure may show the parent alone. Where only a bound is given, the exact number is not on record here.

IC50 data for 27 compounds are collected here from patent US12187742B2 (XRAD Therapeutics, Inc., priority 2018, dated 2025).

Sequence of ATM (Q13315 whole entry): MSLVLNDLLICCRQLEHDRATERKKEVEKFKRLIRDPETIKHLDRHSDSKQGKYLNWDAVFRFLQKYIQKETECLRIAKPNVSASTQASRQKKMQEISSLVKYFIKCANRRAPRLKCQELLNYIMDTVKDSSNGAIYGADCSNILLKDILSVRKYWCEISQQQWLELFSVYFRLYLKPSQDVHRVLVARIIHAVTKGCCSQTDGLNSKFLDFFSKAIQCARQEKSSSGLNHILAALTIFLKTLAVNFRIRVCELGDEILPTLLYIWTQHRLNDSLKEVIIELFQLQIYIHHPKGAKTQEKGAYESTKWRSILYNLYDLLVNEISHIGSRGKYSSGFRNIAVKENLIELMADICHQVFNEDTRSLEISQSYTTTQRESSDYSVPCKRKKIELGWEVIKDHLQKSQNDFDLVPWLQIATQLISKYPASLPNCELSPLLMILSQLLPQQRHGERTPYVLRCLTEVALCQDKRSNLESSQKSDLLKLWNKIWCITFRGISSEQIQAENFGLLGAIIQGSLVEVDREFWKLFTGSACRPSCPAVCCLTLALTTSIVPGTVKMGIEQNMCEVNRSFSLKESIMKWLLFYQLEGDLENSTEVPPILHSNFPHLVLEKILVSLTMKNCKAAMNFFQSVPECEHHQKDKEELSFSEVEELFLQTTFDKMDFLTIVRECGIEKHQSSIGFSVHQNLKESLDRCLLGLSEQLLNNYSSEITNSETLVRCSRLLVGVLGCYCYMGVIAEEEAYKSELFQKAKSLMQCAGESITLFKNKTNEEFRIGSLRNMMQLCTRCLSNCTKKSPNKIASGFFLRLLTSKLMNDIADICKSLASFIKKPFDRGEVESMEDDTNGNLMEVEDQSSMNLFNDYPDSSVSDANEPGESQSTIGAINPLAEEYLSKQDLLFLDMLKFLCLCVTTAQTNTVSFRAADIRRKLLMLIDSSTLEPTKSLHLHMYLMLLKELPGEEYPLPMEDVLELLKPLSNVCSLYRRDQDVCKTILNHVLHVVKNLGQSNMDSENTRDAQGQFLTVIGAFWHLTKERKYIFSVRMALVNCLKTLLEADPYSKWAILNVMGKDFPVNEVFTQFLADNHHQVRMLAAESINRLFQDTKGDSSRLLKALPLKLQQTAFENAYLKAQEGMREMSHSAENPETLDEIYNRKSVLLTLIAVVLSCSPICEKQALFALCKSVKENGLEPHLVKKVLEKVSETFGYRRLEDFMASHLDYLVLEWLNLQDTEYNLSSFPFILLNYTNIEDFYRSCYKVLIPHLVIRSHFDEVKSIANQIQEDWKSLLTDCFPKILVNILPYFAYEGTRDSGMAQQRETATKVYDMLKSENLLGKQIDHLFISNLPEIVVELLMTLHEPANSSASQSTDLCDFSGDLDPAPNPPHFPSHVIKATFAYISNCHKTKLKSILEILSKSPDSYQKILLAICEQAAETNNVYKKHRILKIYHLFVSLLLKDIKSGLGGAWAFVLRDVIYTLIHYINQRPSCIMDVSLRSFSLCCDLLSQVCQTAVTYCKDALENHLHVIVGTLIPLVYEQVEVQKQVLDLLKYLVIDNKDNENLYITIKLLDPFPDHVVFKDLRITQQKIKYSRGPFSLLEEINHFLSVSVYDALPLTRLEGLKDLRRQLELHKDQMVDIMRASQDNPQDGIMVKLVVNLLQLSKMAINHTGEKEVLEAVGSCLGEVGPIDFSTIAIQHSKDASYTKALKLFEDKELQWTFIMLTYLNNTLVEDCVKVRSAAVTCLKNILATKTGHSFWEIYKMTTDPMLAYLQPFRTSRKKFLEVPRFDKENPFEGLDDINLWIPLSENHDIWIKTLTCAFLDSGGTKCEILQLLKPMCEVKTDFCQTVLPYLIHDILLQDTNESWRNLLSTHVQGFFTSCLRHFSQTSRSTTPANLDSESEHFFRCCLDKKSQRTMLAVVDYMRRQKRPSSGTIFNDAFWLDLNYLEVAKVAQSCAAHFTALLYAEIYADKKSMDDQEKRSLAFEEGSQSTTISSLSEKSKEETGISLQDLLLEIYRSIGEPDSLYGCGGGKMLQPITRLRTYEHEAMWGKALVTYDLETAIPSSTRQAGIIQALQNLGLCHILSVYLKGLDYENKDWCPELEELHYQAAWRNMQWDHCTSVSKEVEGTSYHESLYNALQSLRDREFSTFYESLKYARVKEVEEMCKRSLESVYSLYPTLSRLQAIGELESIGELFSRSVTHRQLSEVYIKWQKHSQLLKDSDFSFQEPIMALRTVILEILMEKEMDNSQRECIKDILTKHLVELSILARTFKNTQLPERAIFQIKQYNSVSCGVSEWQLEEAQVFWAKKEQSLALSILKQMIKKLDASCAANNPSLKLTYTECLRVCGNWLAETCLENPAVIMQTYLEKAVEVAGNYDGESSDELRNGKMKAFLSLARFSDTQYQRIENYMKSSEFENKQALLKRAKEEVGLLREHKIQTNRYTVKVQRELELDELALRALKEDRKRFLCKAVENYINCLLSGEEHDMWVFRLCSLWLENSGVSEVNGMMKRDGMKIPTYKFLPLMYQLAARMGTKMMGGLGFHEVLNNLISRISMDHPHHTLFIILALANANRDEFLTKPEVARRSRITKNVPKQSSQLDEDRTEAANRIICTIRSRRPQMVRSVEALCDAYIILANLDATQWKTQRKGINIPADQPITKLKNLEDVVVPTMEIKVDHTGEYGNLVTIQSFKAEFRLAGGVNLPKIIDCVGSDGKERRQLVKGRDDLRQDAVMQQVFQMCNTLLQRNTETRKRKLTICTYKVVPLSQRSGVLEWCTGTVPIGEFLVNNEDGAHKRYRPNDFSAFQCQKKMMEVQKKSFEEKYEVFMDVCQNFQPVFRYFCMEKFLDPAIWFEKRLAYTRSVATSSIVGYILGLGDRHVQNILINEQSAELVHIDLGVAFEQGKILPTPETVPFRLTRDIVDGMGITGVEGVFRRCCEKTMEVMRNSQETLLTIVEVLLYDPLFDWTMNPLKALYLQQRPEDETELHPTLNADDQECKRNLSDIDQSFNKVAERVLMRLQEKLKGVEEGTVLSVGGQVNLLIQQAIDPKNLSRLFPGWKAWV

The test concerns the target ATM (Homo sapiens (Human), UniProt Q13315). Description: ATM in Cell Western Assay (pKAP1 in etoposide-treated MCF-7 cells). To be noted: MCF-7 cells, etoposide 100 μM, 1 hr, pKAP1 readout. The test is classed as cell-based. On the procedure: Assay of Compounds ATM and DNA-PK Inhibition
ATM in Cell Western Assay:
Next day, add corresponding concentration of compounds using pin tool (Echo 550), the final top concentration is 1 μM, 3-fold series dilution, total 10 doses. Then add etoposide (Sigma, #E1383) to a final concentration of 100 μM. Incubate at 37° C. for 1 hr. Fix cells by adding 25 μL of fixing solution (8% paraformaldehyde) for 20 minutes at ambient temperature. Permeabilize cells for 5 washes with 1×PBS (phosphate buffered saline) containing 0.1% Triton X-100; each wash is for 5 minutes. […] The next day, wash the plate 5 times with 1×PBST (1×PBS containing 0.1% Tween-20). […] Wash the cells for 5 times with 1×PBST (1×PBS containing 0.1% Tween-20) at ambient temperature, using gentle shaking in the dark. After the last wash
remove wash solution, turn plate upside down onto a thin paper towel and centrifuge at 1000 rpm for 1 min to absorb all wash buffer. Clean the bottom of plate with moist lint free paper. Scan plate immediately using ODYSSEY CLx (LI-COR) for the best results.
As for `CN1C(=O)C2(CC2)c2c1cnc1ccc(-c3cccc4[nH]ncc34)cc21` [Example 50, 8′-(1H-indazol-4-yl)-3′-methylspiro[cyclopropane-1,1′-pyrrolo[2,3-c]quinolin]-2′(3′-H)-one], the IC50 is greater than 100 nM.

For the compound `CN1C(=O)C2(CC2)c2c1cnc1ccc(-c3cncnc3)cc21` [Example 51, 3′-Methyl-8′-(pyrimidin-5-yl)spiro[cyclopropane-1,1′-pyrrolo [2,3-c]quinolin]-2′(3′-H)-one], the IC50 is greater than 100 nM.

`CN(C)CCCOc1ncc(-c2ccc3ncc4c(c3c2)C2(CC2)C(=O)N4C)cc1C(N)=O` [Example 52, 2-(3-(Dimethylamino)propoxy)-5-(3′-methyl-2′-oxo-2′,3′-dihydrospiro[cyclopropane-1,1′-pyrrolo[2,3-c]quinolin]-8′-yl)nicotinamide] gave an IC50 greater than 100 nM.

For `CN(C)CCCOc1ncc(-c2ccc3ncc4c(c3c2)C2(CC2)C(=O)N4C)cc1Cl` [Example 55, 8′-(5-Chloro-6-(3-(dimethylamino)propoxy)pyridin-3-yl)-3 methylspiro[cyclopropane-1,1′-pyrrolo[2,3-c]quinolin]-2′(3′-H)-one], the IC50 is greater than 100 nM.

`CN1C(=O)C2(CC2)c2c1cnc1ccc(-c3cnc(OCCCN4CCCC4)c(NS(=O)(=O)C4CC4)c3)cc21` [Example 60, N-(5-(3-Methyl-2′-oxo-2′,3′-dihydrospiro [cyclopropane-1,1′-pyrrolo[2,3-c]quinolin]-8′-yl)-2-(3-(pyrrolidin-1-yl)propoxy)pyridin-3-yl) cyclopropanesulfonamide] yielded an IC50 of 1 to 100 nM.

As to `CN(C)CCCOc1ncc(-c2ccc3ncc4c(c3c2)C2(CC2)C(=O)N4C)cc1-c1ccccc1` [Example 72, 8′-(6-(3-(Dimethylamino)propoxy)-5-phenylpyridin-3-yl)-3′-methylspiro[cyclopropane-1,1′-pyrrolo[2,3-c]quinolin]-2′(3′-H)-one], the IC50 was greater than 100 nM.

`CN(C)CCCOc1ncc(-c2ccc3ncc4c(c3c2)N(C)C2(CC2)C(=O)N4C)cc1NS(=O)(=O)c1ccccc1` [Example 74, N-(5-(1′,4′-Dimethyl-3′-oxo-34′-dihydro-1′H-spiro[cyclopropane-1,2′-pyrazino[2,3-c]quinolin]-9′-yl)-2-(3-(dimethylamino)propoxy)pyridin-3-yl) benzenesulfonamide] yielded an IC50 greater than 100 nM.

The compound `CN(C)CCCOc1ncc(-c2ccc3ncc4c(c3c2)C2(CC2)C(=O)N4C)cc1NS(=O)(=O)c1cccnc1` [Example 85] displayed a 50% inhibitory concentration (IC50) of 1 to 100 nM.

As for `CN(C)CCCOc1ncc(-c2ccc3ncc4c(c3c2)N(C)C2(CC2)C(=O)N4)cc1NS(=O)(=O)c1ccccc1` [Example 87, N-(2-(3-(Dimethylamino)propoxy)-5-(1′-methyl-3′-oxo-3′-,4′-dihydro-1′H-spiro[cyclopropane-1,2′-pyrazino[2,3-c]quinolin]-9′-yl)pyridin-3-yl) benzenesulfonamide], the IC50 is greater than 100 nM.

As for `CN(C)CCCNc1ccc(-c2ccc3ncc4c(c3c2)C2(CC2)C(=O)N4C)cn1` [Example 94, 8′-(6-((3-(Dimethylamino)propyl)amino)pyridin-3-yl)-3′-methylspiro [cyclopropane-1,1′-pyrrolo[2,3-c]quinolin]-2′(3′-H)-one], the half-inhibitory concentration (IC50) fell in the range of 1 to 100 nM.

`CC(Oc1cc(-c2ccc3ncc4c(c3c2)C2(CC2)C(=O)N4C)cnc1OCCCN(C)C)c1ccccc1` (stereo not drawn) [Example 95, 8′-(6-(3-(Dimethylamino)propoxy)-5-(1-phenylethoxy)pyridin-3-yl)-3′-methylspiro[cyclopropane-1,1′-pyrrolo[2,3-c]quinolin]-2′(3′-H)-one] yielded an IC50 greater than 100 nM.

The compound `Cc1oncc1S(=O)(=O)Nc1cc(-c2ccc3ncc4c(c3c2)C2(CC2)C(=O)N4C)cnc1OCCCN(C)C` [Example 99, N-(2-(3-(Dimethylamino)propoxy)-5-(3′-methyl-2′-oxo-2′,3′-dihydrospiro [cyclopropane-1,1′-pyrrolo[2,3-c]quinolin]-8′-yl)pyridin-3-yl)-5-methylisoxazole-4-sulfonamide] yielded an IC50 greater than 100 nM.

In the case of `CC(=O)Nc1ccc(S(=O)(=O)Nc2cc(-c3ccc4ncc5c(c4c3)C3(CC3)C(=O)N5C)cnc2OCCCN(C)C)cc1` [Example 101, N-(4-(N-(2-(3-(Dimethylamino)propoxy)-5-(3′-methyl-2′-oxo-2′,3′-dihydrospiro [cyclopropane-1,1′-pyrrolo[2,3-c]quinolin]-8′-yl)pyridin-3-yl)sulfamoyl)phenyl) acetamide], the IC50 fell in the range of 1 to 100 nM.

The compound `CN(C)CCCOc1ncc(-c2ccc3ncc4c(c3c2)C2(CC2)C(=O)N4C)cc1NS(=O)(=O)c1ccc(Cl)nc1` [Example 105, 6-Chloro-N-(2-(3-(dimethylamino)propoxy)-5-(3′-methyl-2′-oxo-2′,3′-dihydrospiro[cyclopropane-1,1′-pyrrolo[2,3-c]quinolin]-8′-yl)pyridin-3-yl)pyridine-3-sulfonamide] returned an IC50 of 1 to 100 nM.

On to `CN(C)CCCOc1ncc(-c2ccc3ncc4c(c3c2)C2(CC2)C(=O)N4C)cc1NS(=O)(=O)c1ccc(C(F)(F)F)cc1` [Example 108], for which the IC50 was less than 0.5 nM.

The compound `CN1CC(COc2ncc(-c3ccc4ncc5c(c4c3)C3(CC3)C(=O)N5C)cc2NS(=O)(=O)c2ccccc2)C1` [Example 110, N-(5-(3′-Methyl-2′-oxo-2′,3′-dihydrospiro[cyclopropane-1,1′-pyrrolo[2,3-c]quinolin]-8′-yl)-2-((1-methylazetidin-3-yl)methoxy)pyridin-3-yl)benzenesulfonamide] came in with an IC50 greater than 100 nM.

`CN(C)CCCOc1ncc(-c2ccc3ncc4c(c3c2)C2(CC2)C(=O)N4C)cc1NS(=O)(=O)c1cccs1` [Example 120] displayed an IC50 of 0.5 to 1 nM.

Compound `CN(C)CC1CN(c2ncc(-c3ccc4ncc5c(c4c3)C3(CC3)C(=O)N5C)cc2NS(=O)(=O)C2CC2)C1` [Example 122, N-(2-(3-((Dimethylamino)methyl)azetidin-1-yl)-5-(3′-methyl-2′-oxo-2′,3′-dihydrospiro[cyclopropane-1,1′-pyrrolo[2,3-c]quinolin]-8′-yl)pyridin-3-yl)cyclopropanesulfonamide] registered an IC50 of 1 to 100 nM.

Take `CN1C(=O)C2(CCC2)c2c1cnc1ccc(-c3cnc(N4CCS(=O)(=O)CC4)c(NS(=O)(=O)c4ccccc4)c3)cc21` [Example 135, N-(2-(1,1-Dioxidothiomorpholino)-5-(3′-methyl-2′-oxo-2′,3′-dihydrospiro[cyclobulane-1,1′-pyrrolo[2,3-c]quinolin]-8′-yl)pyridin-3-yl)benzenesulfonamide hydrochloride]: the IC50 is greater than 100 nM.

Turning to `CN(C)CCCOc1ncc(-c2ccc3ncc4c(c3c2)C2(CCC2)C(=O)N4C)cc1NS(=O)(=O)N1CCCc2ccccc21` [Example 139], the 50% inhibitory concentration (IC50) lay within 1 to 100 nM.

`CN1C(=O)C2(CC2)c2c1cnc1ccc(-c3cnc(OCCC[N+](C)(C)[O-])c(NS(=O)(=O)c4ccccc4)c3)cc21` [Example 140, N,N-Dimethyl-3-((5-(3′-methyl-2′-oxo-2′,3′-dihydrospiro[cyclopropane-1,1′-pyrrolo[2,3-c]quinolin]-8′-yl)-3-(phenylsulfonamido)pyridin-2-yl)oxy)propan-1-amine oxide] returned an IC50 of 1 to 100 nM.

`CN(C)CCCOc1ncc(-c2ccc3ncc4c(c3c2)C2(CCC2)C(=O)N4C)cc1NS(=O)(=O)c1ccc(OC(F)(F)F)cc1` [Example 143, N-(2-(3-(Dimethylamino)propoxy)-5-(3′-methyl-2′-oxo-2′,3′-dihydrospiro[cyclobulane-1,1′-pyrrolo[2,3-c]quinolin]-8′-yl)pyridin-3-yl)-4-(trifluoromethoxy)benzenesulfonamide hydrochloride] had an IC50 of 1 to 100 nM.

For the compound `Cc1ccc(S(=O)(=O)Nc2cc(-c3ccc4ncc5c(c4c3)C3(CCC3)C(=O)N5C)cnc2OCCCN2CCC(F)(F)CC2)cc1` [Example 152, hydrochloride], the IC50 was in the range of 1 to 100 nM.

`CN(C)CCCOc1ncc(-c2ccc3ncc4c(c3c2)C2(CCC2)C(=O)N4C)cc1NS(=O)(=O)c1cc[nH]c(=O)c1` [Example 161, N-(2-(3-(Dimethylamino)propoxy)-5-(3′-methyl-2′-oxo-2′,3′-dihydrospiro[cyclobulane-1,1′-pyrrolo[2,3-c]quinolin]-8′-yl)pyridin-3-yl)-2-oxo-1,2-dihydropyridine-4-sulfonamide] gave a concentration for half-maximal inhibition (IC50) of 1 to 100 nM.

Consider `CN(C)CCCOc1ncc(-c2ccc3ncc4c(c3c2)C2(CCC2)C(=O)N4C)cc1NS(=O)(=O)c1cncc(C#N)c1` [Example 174, 5-Cyano-N-(2-(3-(dimethylamino)propoxy)-5-(3′-methyl-2′-oxo-2′,3′-dihydrospiro[cyclobulane-1,1′-pyrrolo[2,3-c]quinolin]-8′-yl)pyridin-3-yl)pyridine-3-sulfonamide hydrochloride], for which the half-maximal inhibitory concentration (IC50) is 1 to 100 nM.

In the case of `CCCCN(C)S(=O)(=O)Nc1cc(-c2ccc3ncc4c(c3c2)C2(CCC2)C(=O)N4C)cnc1OCCCN(C)C` [Example 176], the IC50 was in the range of 1 to 100 nM.

Compound `CN(C)CCCOc1ncc(-c2ccc3ncc4c(c3c2)C2(CCC2)C(=O)N4C)cc1NS(=O)(=O)N(C)C1CCNCC1` [Example 179, N-Methyl-N-(piperidin-4-yl)({2-[3-(dimethylamino)propoxy]-5-{3′-methyl-2′-oxo-2′,3′-dihydrospiro[cyclobutane-1,1′-pyrrolo[2,3-c]quinoline]-8-yl}pyridin-3-yl}amino)sulfonamide 2,2,2-trifluoroacetate] came in with an IC50 of 1 to 100 nM.

One may read the IC50 as the point on the concentration scale where inhibition reaches its midpoint. High values mean weaker potency, low ones greater potency.
